These results are taken from publication PMC6328587 (Nature Communications, 2019).

One experiment addresses T1, p38γ (Homo sapiens, UniProt P53778).
T1 construct: endogenous in cells; host or cells: MDA-MB-231
T1 sequence (P53778 1-367): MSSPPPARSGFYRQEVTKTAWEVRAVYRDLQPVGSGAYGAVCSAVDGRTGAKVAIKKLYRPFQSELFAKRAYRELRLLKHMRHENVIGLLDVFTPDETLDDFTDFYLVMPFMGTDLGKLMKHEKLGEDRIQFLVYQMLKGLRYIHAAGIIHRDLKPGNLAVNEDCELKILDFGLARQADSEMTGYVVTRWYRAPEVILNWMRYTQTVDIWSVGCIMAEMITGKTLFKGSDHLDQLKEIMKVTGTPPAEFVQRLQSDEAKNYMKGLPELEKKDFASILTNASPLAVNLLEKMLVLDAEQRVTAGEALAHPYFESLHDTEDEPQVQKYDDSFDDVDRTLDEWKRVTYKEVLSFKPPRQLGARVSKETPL
Put plainly: p38γ degradation, western blot in MDA-MB-231 cells. It is filed as cell-based. As to conditions: concentrations up to 2.5 µM. Here is the method:
(§1) […] once with ice-cold PBS (1 × ), followed by lysis in buffer containing 25 mM Tris [pH 7.5], 0.25% sodium deoxycholate, 1% Triton X-100, supplemented with 1X protease inhibitor cocktail (Roche), and phosphatase inhibitors (10 mM NaF, 1 mM Na3VO4, and 20 mM β-glycerophosphate), unless otherwise noted. Lysates were spun at 14,000 × g for 10 min at 4 °C and supernatant was evaluated for protein content using a Pierce BCA Protein Assay (ThermoFisher Scientific). In all experiments, 25–50 μg of protein was loaded onto 10% SDS-PAGE gels or 4–20% Criterion TGX precast gradient gels (Bio-Rad), transferred to nitrocellulose membranes, and probed with the specified antibodies overnight at 4 °C in 1X TBS-Tween (Tris-buffered saline plus 0.02% Tween 20) containing 5% non-fat milk. Immunoblots were visualized using a Bio-Rad ChemiDoc imaging instrument and subsequently processed and quantified using the accompanying Bio-Rad ImageLab software. See Supplementary Figure 8 for uncropped scans of western blots shown in the main text figures.
(§2) Supplementary Figure 4 cont.
(§3) Supplementary Figure 4. Characterization of M APK fam ily degradation selectivity (related to Figures 1-2). (a) p38 M APK fam ily m em bers (α, β, δ, γ) were aligned using the T-Coffee multiple sequence alignm ent server. […] Note: JNK1 and JNK2 are expressed as two alternatively-spliced form s. […]
(Immunoblotting shows a protein as a band on a membrane.)

Another experiment has as its target T2, p38β (Homo sapiens, UniProt Q15759).
T2 construct: endogenous in cells; host or cells: MDA-MB-231
The experiment in a line: p38β degradation, western blot in MDA-MB-231 cells. Type of experiment: cell-based. As to conditions: concentrations up to 2.5 µM. Here is the method: as §1, §2, §3

Experiment [1] has as its target T3, p38δ:PROTAC:VHL ternary complex (Homo sapiens, UniProt O15264+P40337).
T3 construct: encoding a region spanning amino acids 1–365; His6 (N); made in house; host or cells: E. coli BL21-CodonPlus(DE3)-RIPL (p38δ); E. coli BL21(DE3) (GST-VBC)
Put plainly: In vitro ternary complex pull-down, GST-VBC bait, purified p38δ. Type of experiment: binding. As to conditions: dose-dependent. Here is the method: Glutathione Sepharose 4B (Glutathione-conjugated beads in a slurry containing 20% ethanol) were washed twice with 1X wash buffer (50 mM HEPES pH 7.5, 150 mM NaCl, 1 mM DTT, 0.01% NP40, 5 mM MgCl2, 10% Glycerol) and then blocked for 1 h at room temperature with 10% bovine serum albumin (BSA) in wash buffer. The beads were then washed again three times with wash buffer and then purified GST-VBC (stable form of VHL complexed with EloB/EloC, described above) was immobilized for 1 h at 4 °C at 3.6 pmole µL^–1 of beads. The beads were then washed three times with wash buffer, resuspended, divided into two equal volumes, and p38α or p38δ protein was added. The bead:p38 mixture was then aliquoted to separate tubes and PROTAC was added at the indicated concentration (PROTACs were intermediately diluted in 10% DMSO and 0.25% CHAPS). This mixture was incubated at 4 °C for 2 h. The beads were washed three times with 10 column volumes of wash buffer and then eluted with SDS loading buffer at 75 °C for 10 min.

For the next experiment, the target named is T4, p38α (Homo sapiens, UniProt Q16539).
T4 construct: SJFα PROTAC (13-atom linker, amide attachment) selectively degrades p38α; endogenous in cells; host or cells: MDA-MB-231
T4 sequence (Q16539 whole entry): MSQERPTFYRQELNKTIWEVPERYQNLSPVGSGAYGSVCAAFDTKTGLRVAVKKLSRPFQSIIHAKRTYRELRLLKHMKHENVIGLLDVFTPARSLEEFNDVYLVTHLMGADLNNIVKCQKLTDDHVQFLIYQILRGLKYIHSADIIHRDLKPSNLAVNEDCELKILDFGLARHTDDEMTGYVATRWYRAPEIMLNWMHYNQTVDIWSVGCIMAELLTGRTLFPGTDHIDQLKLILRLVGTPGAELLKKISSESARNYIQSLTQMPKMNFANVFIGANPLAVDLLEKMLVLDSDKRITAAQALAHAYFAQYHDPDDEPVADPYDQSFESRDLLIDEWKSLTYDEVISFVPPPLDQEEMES
Put plainly: PROTAC washout assay, p38α. It is filed as cell-based. To be noted: 250 nM PROTAC for 24 h, then re-plated in fresh medium. Here is the method:
(§4) MDA-MB-231 cells were plated at 1.5 × 10^5 cells per well in a six-well dish and allowed to adhere overnight. On the following day, all cells were treated with either vehicle (DMSO) or PROTAC (250 nM). After 24 h, cells were either harvested or washed with 1X PBS, trypsinized, and re-plated onto new six-well dishes in fresh RPMI-1640 (1 × ) media without additional compound. For these washout conditions, cells were collected every 24 h until final harvest (72 h washout).

The target of a further experiment is T5, p38δ (Homo sapiens, UniProt O15264).
T5 construct: endogenous in cells; host or cells: MDA-MB-231
T5 sequence (O15264 1-365): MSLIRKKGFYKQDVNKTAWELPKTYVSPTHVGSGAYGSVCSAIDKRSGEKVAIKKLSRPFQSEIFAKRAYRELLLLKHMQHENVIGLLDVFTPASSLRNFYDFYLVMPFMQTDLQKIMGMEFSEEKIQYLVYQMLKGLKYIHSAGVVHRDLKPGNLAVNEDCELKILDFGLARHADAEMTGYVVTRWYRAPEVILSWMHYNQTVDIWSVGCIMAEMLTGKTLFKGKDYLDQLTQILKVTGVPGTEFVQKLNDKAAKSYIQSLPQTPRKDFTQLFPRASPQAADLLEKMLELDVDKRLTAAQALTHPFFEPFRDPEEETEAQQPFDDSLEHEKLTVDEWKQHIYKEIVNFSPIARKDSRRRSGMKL
The experiment in a line: PROTAC washout assay, p38δ. Type of experiment: cell-based. As to conditions: 250 nM PROTAC for 24 h, then re-plated in fresh medium. Here is the method:
as §4

T2 sequence (Q15759 whole entry): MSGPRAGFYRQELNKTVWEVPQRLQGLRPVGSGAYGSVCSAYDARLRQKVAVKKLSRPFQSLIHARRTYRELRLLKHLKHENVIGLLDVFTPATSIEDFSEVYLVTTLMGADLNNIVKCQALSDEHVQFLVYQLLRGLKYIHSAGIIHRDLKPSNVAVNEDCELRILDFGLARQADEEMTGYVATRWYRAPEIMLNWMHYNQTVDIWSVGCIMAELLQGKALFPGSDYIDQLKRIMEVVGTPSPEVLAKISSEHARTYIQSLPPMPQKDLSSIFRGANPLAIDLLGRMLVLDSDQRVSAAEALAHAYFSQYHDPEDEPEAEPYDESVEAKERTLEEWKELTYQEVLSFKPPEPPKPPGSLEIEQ
T3 sequence (P40337 whole entry, one chain of several, the tested form may be a part): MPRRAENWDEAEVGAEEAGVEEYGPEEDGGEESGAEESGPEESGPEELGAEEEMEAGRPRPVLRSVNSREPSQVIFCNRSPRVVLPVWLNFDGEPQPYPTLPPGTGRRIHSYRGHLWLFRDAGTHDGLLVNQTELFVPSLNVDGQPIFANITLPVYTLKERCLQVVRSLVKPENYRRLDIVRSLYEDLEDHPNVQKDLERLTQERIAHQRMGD
T3 sequence (Q15370 whole entry partner, one chain of several, the tested form may be a part): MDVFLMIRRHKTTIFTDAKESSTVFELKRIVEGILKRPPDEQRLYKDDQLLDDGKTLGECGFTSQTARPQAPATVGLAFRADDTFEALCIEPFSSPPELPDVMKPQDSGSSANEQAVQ
T3 sequence (Q15369 whole entry partner, one chain of several, the tested form may be a part): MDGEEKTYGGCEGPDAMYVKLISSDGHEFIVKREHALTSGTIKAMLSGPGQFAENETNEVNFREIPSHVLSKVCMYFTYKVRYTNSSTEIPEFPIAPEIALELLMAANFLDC

On to `COc1cc2c(Oc3ccc(NC(=O)C4(C(=O)Nc5ccc(F)cc5)CC4)cc3F)ccnc2cc1OCCCCOCCCCOCC(=O)N[C@H](C(=O)N1C[C@H](O)C[C@H]1C(=O)NCc1ccc(-c2scnc2C)cc1)C(C)(C)C` [SJFα], for which the p38γ degradation result at p38γ was “does not degrade”. Moreover, the p38β degradation result on p38β is reported as “does not degrade”. In experiment [1], the “pull-down of purified p38δ on GST-VBC-coated beads” value is given as “can pull-down purified p38δ”. Besides, on p38α, the “time p38α degradation efficacy is maintained post-washout” value worked out at 72 h.

In the case of `COc1cc2c(Oc3ccc(NC(=O)C4(C(=O)Nc5ccc(F)cc5)CC4)cc3F)ccnc2cc1OCCOCCOCCOc1cc(-c2scnc2C)ccc1CNC(=O)[C@@H]1C[C@@H](O)CN1C(=O)[C@H](C(C)C)N1Cc2ccccc2C1=O` [SJFδ], the p38γ degradation entry at p38γ is given as “does not degrade”. Besides, the “time p38δ degradation efficacy is maintained post-washout” value at p38δ came out at 24 h. For the same compound, the p38β degradation result at p38β is listed as “does not degrade”. Besides, the “pull-down of purified p38δ on GST-VBC-coated beads” value in experiment [1] is “can pull-down purified p38δ”.
